According to US20070167465A1, “Fungicidal mixtures” (BASF AKTIENGESELLSCHAFT, priority 2004, published 2007):

System: Pyrenophora teres
Assay: activity against net blotch of barley caused by Pyrenophora teres, 1-day-protective application
Assay type: in vivo, Pyrenophora [syn. Drechslera] teres on barley seedlings
Conditions: individual active compound, barley seedlings, assessed after 6 days
Experimental: The active compounds, separately or jointly, were prepared as a stock solution comprising 0.25% by weight of active compound in acetone or DMSO. 1% by weight of the emulsifier Uniperol® EL (wetting agent having emulsifying and dispersant action based on ethoxylated alkylphenols) was added to this solution, and the mixture was diluted with water to the desired concentration.
Use example—activity against net blotch of barley caused by Pyrenophora teres, 1-day-protective application.
Leaves of pot-grown barley seedlings were sprayed to run-off point with an aqueous suspension having the concentration of active compound stated below. 24 hours after the spray coating had dried on, the test plants were inoculated with an aqueous spore suspension of Pyrenophora [syn. Drechslera] teres, the causative agent of net blotch. The test plants were subsequently placed in a greenhouse at temperatures of between 20 and 24° C. and at 95 to 100% relative atmospheric humidity. After 6 days, the extent of development of the disease was determined visually in % infection of the total leaf area.
The visually determined percentages of infected leaf areas were converted into efficacies in % of the untreated control:
The efficacy (E) is calculated as follows using Abbot's formula: E=(1−α/β).100 α corresponds to the fungal infection of the treated plants in % and β corresponds to the fungal infection of the untreated (control) plants in %
An efficacy of 0 means that the infection level of the treated plants corresponds to that of the untreated control plants; an efficacy of 100 means that the treated plants were not infected.
The expected efficacies of mixtures of active compounds were determined using Colby's formula (Colby, S. R. “Calculating synergistic and antagonistic responses of herbicide combinations”, Weeds, 15, 20-22, 1967) and compared with the observed efficacies.
Colby's formula: E=x+y−x·y/100 • E expected efficacy, expressed in % of the untreated control, when using the mixture of the active compounds A and B at the concentrations a and b • x efficacy, expressed in % of the untreated control, when using the active compound A at the concentration a
y efficacy, expressed in % of the untreated control, when using the active compound B at the concentration b

| SMILES | Efficacy in % of the untreated control (1.25 ppm in the spray liquor) | Efficacy in % of the untreated control (0.25 ppm in the spray liquor) | Efficacy in % of the untreated control (6.25 ppm in the spray liquor) |
| --- | --- | --- | --- |
| CC1CCN(c2c(-c3c(F)cc(F)cc3F)c(Cl)nc3ncnn23)CC1 [I, 5-chloro-7-(4-methylpiperidin-1-yl)-6-(2,4,6-trifluorophenyl)-[1,2,4]triazolo[1,5-a]pyrimidine] | 56 % of the untreated control |  |  |
| CC(C)NC(=O)N1CC(=O)N(c2cc(Cl)cc(Cl)c2)C1=O [II (iprodione), N-isopropyl-3-(3,5-dichlorophenyl)-2,4-dioxoimidazolidine-1-carboxamide] | 0 % of the untreated control | 0 % of the untreated control | 0 % of the untreated control |
